Reference: patent US8507509B2, “Saturated and insaturated bi- or tricyclic aryloxyacetamine derivatives and their use as fungicides” (Syngenta Crop Protection LLC, priority 2007, dated 2013)

Key:
Plasmopara viticola = Plasmopara viticola (downy mildew of grapevine), grapevine leaf disk assay, preventive; format: in vivo; details: foliar, 168 h, 200 ppm, grapevine leaf disks, assessed seven days after inoculation, read-out: control of fungal infection, Plasmopara viticola
[1] = tested on: Erysiphe graminis f.sp. tritici; experiment: Erysiphe graminis f.sp. tritici (wheat powdery mildew), wheat leaf segment assay, preventive; format: in vivo; details: Blumeria graminis, foliar, 96 h; 200 ppm; wheat leaf segments; assessed four days after inoculation; read-out: control of fungal infection, Etysiphe graminis f.sp. tritici
Pythium ultimum = Pythium ultimum (Damping off), liquid culture growth inhibition in potato dextrose broth; format: cell-based; details: Globisporangium ultimum; 20 ppm; potato dextrose broth, 24° C.; inhibition of growth determined photometrically after 48 hours; read-out: control of fungal infection, Pythium ultimum
Septoria tritici = Septoria tritici (leaf blotch), liquid culture growth inhibition in nutrient broth; format: cell-based; details: Zymoseptoria tritici; 200 ppm; PDB broth, 24 C; inhibition of growth determined photometrically after 72 hrs; read-out: control of fungal infection, Septoria tritici
Phytophthora infestans = experiment: whole plant or invertebrate; format: in vivo; details: in Solanum lycopersicum, foliar, 96 h, read-out: control of fungal infection, Phytophthora infestans
Septoria nodorum = Septoria nodorum (wheat glume blotch), wheat leaf segment assay, preventive; format: in vivo; details: Parastagonospora nodorum, foliar, 96 h; 200 ppm; wheat leaf segments; assessed four days after inoculation; read-out: control of fungal infection, Septoria nodorum
[2] = tested on: Puccinia recondita f.sp. tritici; experiment: Puccinia recondita f.sp. tritici (wheat brown rust), wheat leaf segment assay, preventive; format: in vivo; details: foliar, 216 h, 200 ppm, wheat leaf segments, assessed nine days after inoculation, read-out: control of fungal infection, Puccinia recondite f.sp. tritici
Pyricularia oryzae = experiment: whole plant or invertebrate; format: in vivo; details: foliar, 96 h, read-out: control of fungal infection, Pyricularia oryzae

C#Cc1cnc2c(Cl)cc(OC(SC)C(=O)NC(C)(C)C=NOCC=C)cc2c1 (stereo not drawn) [Compound No. 117, N-(2-Allyloxyimino-1,1-dimethyl-ethyl)-2-(8-chloro-3-ethynyl-quinolin-6-yloxy)-2-methylsulfanyl-acetamide]
≥ 60%: pest or weed control at 200 ppm (Plasmopara viticola) | pest or weed control at 200 ppm [1] | inhibition of growth at 20 ppm (Pythium ultimum) | inhibition of growth at 200 ppm (Septoria tritici) | pest or weed control at 200 ppm (Phytophthora infestans) | pest or weed control at 200 ppm (Septoria nodorum) | pest or weed control at 200 ppm [2] | pest or weed control at 200 ppm (Pyricularia oryzae)

C#Cc1cnc2ccc(OC(SC)C(=O)NC(C)(C)C=NOCC)cc2c1 (stereo not drawn) [Compound No. 118, N-(2-Ethoxyimino-1,1-dimethyl-ethyl)-2-(3-ethynyl-quinolin-6-yloxy)-2-methylsulfanyl-acetamide]
≥ 60%: pest or weed control at 200 ppm (Plasmopara viticola) | pest or weed control at 200 ppm [1] | inhibition of growth at 20 ppm (Pythium ultimum) | inhibition of growth at 200 ppm (Septoria tritici) | pest or weed control at 200 ppm (Phytophthora infestans) | pest or weed control at 200 ppm (Septoria nodorum) | pest or weed control at 200 ppm [2] | pest or weed control at 200 ppm (Pyricularia oryzae)

C#Cc1cnc2ccc(OC(SC)C(=O)NC(C)(C)C=NOCC=C)cc2c1 (stereo not drawn) [Compound No. 120, N-(2-Allyloxyimino-1,1-dimethyl-ethyl)-2-(3-ethynyl-quinolin-6-yloxy)-2-methylsulfanyl-acetamide]
≥ 60%: pest or weed control at 200 ppm (Plasmopara viticola) | pest or weed control at 200 ppm [1] | inhibition of growth at 20 ppm (Pythium ultimum) | inhibition of growth at 200 ppm (Septoria tritici) | pest or weed control at 200 ppm (Phytophthora infestans) | pest or weed control at 200 ppm (Septoria nodorum) | pest or weed control at 200 ppm [2] | pest or weed control at 200 ppm (Pyricularia oryzae)
